Entries after “also recorded” stand apart in the source; their conditions may differ. Like-named read-outs stand apart in the source and are kept apart here.
Tests used:
[1] = test system: mGluR2/3; details: intra-accumbens infusion, microdialysis probes; cited from earlier work
[2] = test system: mGluR2/3; details: cited from earlier work; for PFC glutamate levels: infusion/perfusion into PFC, microdialysis
[3] = test system: mGluR2/3 receptors; details: perfusion into the accumbens, in vivo microdialysis; cited from earlier work
[4] = cited from earlier work
[5] = cited from earlier work; remark: listed apart in the source
[6] = cited from earlier work; remark: listed apart in the source
[7] = test system: XC transporter; details: cited from earlier work
[8] = humans; cited from earlier work
[9] = biological target: T1, mGluR5 (Rattus norvegicus, UniProt P31424); experiment: Cocaine relapse, chronic NAC or saline followed by acute MPEP (FIG. 3); type: in vivo
T1 construct: from tissue; host or cells: brain of living Sprague-Dawley rats (nucleus accumbens for CHPG microinjection; systemic dosing for MTEP, MPEP, Fenobam)
T1 sequence (P31424 21-1203): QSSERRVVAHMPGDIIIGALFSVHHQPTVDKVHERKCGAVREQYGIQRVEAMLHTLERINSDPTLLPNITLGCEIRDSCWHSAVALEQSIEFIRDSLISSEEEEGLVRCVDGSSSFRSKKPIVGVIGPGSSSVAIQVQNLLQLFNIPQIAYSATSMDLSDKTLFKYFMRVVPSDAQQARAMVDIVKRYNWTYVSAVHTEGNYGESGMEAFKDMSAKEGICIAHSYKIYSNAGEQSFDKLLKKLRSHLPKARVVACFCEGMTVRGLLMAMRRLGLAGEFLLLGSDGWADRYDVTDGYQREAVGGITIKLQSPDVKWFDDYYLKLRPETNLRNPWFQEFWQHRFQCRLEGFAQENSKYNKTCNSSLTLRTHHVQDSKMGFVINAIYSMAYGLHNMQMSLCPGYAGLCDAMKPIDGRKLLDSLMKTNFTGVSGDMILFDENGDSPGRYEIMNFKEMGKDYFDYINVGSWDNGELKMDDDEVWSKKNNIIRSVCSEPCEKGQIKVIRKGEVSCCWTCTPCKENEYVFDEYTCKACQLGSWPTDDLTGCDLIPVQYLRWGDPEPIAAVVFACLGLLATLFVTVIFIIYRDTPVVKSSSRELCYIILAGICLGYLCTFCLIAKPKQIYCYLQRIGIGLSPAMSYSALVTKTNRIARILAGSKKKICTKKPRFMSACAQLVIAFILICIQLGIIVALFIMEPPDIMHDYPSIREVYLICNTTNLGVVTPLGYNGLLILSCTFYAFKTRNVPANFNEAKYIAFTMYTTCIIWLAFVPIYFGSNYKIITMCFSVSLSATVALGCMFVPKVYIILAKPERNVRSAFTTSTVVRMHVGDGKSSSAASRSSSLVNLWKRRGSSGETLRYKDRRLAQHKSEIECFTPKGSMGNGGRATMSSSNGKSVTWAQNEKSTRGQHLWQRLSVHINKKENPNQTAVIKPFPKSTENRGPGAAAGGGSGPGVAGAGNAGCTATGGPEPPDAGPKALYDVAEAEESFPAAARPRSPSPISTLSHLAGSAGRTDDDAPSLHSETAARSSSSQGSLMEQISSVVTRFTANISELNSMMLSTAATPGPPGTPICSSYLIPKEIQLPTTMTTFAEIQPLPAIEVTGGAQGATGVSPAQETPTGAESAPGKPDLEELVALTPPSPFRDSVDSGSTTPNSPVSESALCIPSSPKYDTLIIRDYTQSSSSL
Procedure: Data were analyzed by a two-way ANOVA interaction F(1,20)=7.17, p=0.015; *p<0.05 comparing saline to MPEP.
Towards this end, the effects of chronic NAC followed by acute administration of mGluR5 modulator (MPEP) on relapse in the rat model were examined.
(§1) All experiments were conducted in accordance with the US National Institutes of Health guidelines for the care and use of laboratory animals, and all procedures were approved by the Institutional Animal Care and Use Committee at the Medical University of South Carolina. One week after arrival, male Sprague-Dawley rats (250 g) were anesthetized with ketamine HCl (87.5 mg kg^−1 Ketaset, Fort Dodge Animal Health) and xylazine (5 mg kg^−1 Rompum, Bayer) and implanted with intravenous catheters. The catheters were flushed daily with cefazolin (0.2 ml of a 0.1 g/ml solution) and heparin (0.2 ml of 100 units) to prevent infection and maintain catheter patency. Rats were allowed to recover for a week before behavioral training (Baker et al. Nat. Neurosci 6:743-749, 2003).
Rats were trained to self-administer cocaine in a standard operant chamber with two retractable levers. The self-administration regimen consisted of 10d of self-administration at >10 infusions per session. […] Cocaine self-administering rats were often paired with yoked saline controls. […]

[10] = biological target: T1, mGluR5; experiment: Cocaine+cue induced reinstatement, low-dose mGluR5 antagonists in rats given N-acetylcysteine after extinction (FIG. 6); type: in vivo; details: MPEP 1.0 mg/kg/ip or Fenobam 1.75 mg/kg/ip
Procedure: Top, treatment protocol for cocaine, N-acetylcysteine, and mGluR5 antagonists.
Rats were injected with low doses of MPEP (1.0 mg/kg/ip) or Fenobam (1.75 mg/kg/ip) (FIG. 6), both systemically active and selective mGluR5 receptor antagonists (Carroll, 2008; Montana et al., 2009).
as §1
Rats were trained to self-administer cocaine in a standard operant chamber with two retractable levers. The self-administration regimen consisted of 10d of self-administration at >10 infusions per session. […] Cocaine self-administering rats were often paired with yoked saline controls. Extinction procedures began 24 h after the rat met the acquisition criterion and lasted for at least 3 weeks. Lever presses were inconsequential throughout the extinction training

[11] = test system: mGluR2/3 receptors; details: bath application, accumbens slices; cited from earlier work
[12] = test system: system XC−; details: cystine added to brain slices; cited from earlier work
[13] = biological target: T1, mGluR5; experiment: Cue-induced cocaine relapse (active lever presses), CHPG microinjected into nucleus accumbens (FIG. 1); type: in vivo, rats
Procedure: Relapse was induced by presenting the animal with a tone and light compound cue that was previously associated with cocaine delivery during the self-administration training. […] Data were analyzed using one-way ANOVA (2,14)=5.20, p=0.021; *p<0.05 compared to extinction, +p<0.05 comparing cue+aCSF (artificial cerebrospinal fluid control injection).
as §1
Rats were trained to self-administer cocaine in a standard operant chamber with two retractable levers. The self-administration regimen consisted of 10d of self-administration at >10 infusions per session. […]

[14] = rats given N-acetylcysteine after extinction training

For `CC(N)(C(=O)O)c1ccc(P(=O)(O)O)cc1` (stereo not drawn) [MPPG, α-methyl-4-phosphonophenylglycine], the basal dopamine levels [1] is given as “increase”.

For `N[C@](CC1c2ccccc2Oc2ccccc21)(C(=O)O)[C@H]1C[C@@H]1C(=O)O` [LY341495], the “glutamate levels in subcortical regions (nucleus accumbens and VTA)” value ([2]; infusion in the prefrontal cortex) is given as “increased”, the PFC glutamate levels [2] is given as “increase” and the “extracellular glutamate in the accumbens” value [3] is given as “increased glutamate release”.

In the case of `CC(=O)N[C@@H](CS)C(=O)O` [NAC, N-acetylcysteine], the peak concentration ([4]; 600 mg i.v. dose) is given as 300 µM, the “peak NAC plasma concentration” value ([4]; humans, 400 mg oral dose) is given as 10 to 17 µM and the “peak NAC plasma concentration” value ([4]; humans, 600 mg oral dose) is given as 16 µM. For the same compound, the “time of peak NAC plasma concentration after administration” value ([4]; humans, 400 or 600 mg oral dose) was “one”, the half-life ([4]; oral NAC) was 6.25 h and the oral bioavailability ([4]; oral NAC) was 4-10%. For the same compound, the “time to peak plasma concentration following ingestion” value ([4]; oral NAC) was 1 to 2 h, the side effects ([5]; clinical use) was “minimal and mostly limited to gastrointestinal discomfort; also recorded: without any noticeable side effects” and the toxicity ([5]; compared with cystine and cysteine) was “less toxic”. The solubility [6] was “more soluble”, the extinction responding ([7]; NAC for 2 weeks during extinction from heroin self-administration) was “reduces extinction responding” and the reinstatement ([7]; NAC for 2 weeks during extinction from heroin self-administration, up to one month after last injection) was “prevents reinstatement”. The extinction responding ([7]; NAC treatment during self-administration, after chronic cocaine) was “reduces extinction responding”, the “extracellular glutamate levels in the accumbens” value ([7]; after chronic cocaine) was “normalizes” and the “relapse to drug seeking” value ([7]; animal models of drug addiction) was “inhibit relapse to cocaine and heroin; also recorded: prevents relapse to drug seeking”. The protection against relapse ([7]; chronic NAC during cocaine self-administration or heroin extinction, several weeks after last NAC injection) was “enduring protection against relapse”, the “cocaine, nicotine and marijuana use” value [8] was “reduces but does not abolish” and the compulsive gambling behavior [8] was “reduce”. For the same compound, the “desire for cocaine use” value [8] was “reduce”, the marijuana abuse [8] was “reduce” and the “number of cigarettes smoked” value [8] was “reduce”.

For `N[C@]1(C(=O)O)[C@H]2[C@@H](C[C@H]1OCc1ccc(Cl)c(Cl)c1)[C@]2(F)C(=O)O` [MGS0039], the basal dopamine levels [1] is listed as “increase”.

With `Cc1cccc(C#Cc2ccccc2)n1` [MPEP, 2-methyl-6-(phenylethynyl)pyridine] the “lever pressing (measure of relapse)” value ([9]; acute MPEP in animals treated chronically with NAC) was “reduced cocaine relapse; also recorded: reduced lever pressing”, the “lever pressing (measure of relapse)” value ([9]; acute MPEP in animals treated chronically with saline) was “without effect and not” and the “relapse to cocaine seeking (lever pressing)” value (from here on “relapse to cocaine seeking”) [10, 14] was “significantly reduced lever pressing; also recorded: inhibit relapse”. For the same compound, the “relapse to cocaine seeking” value ([10]; vehicle treated rats) was “not”.

For `N[C@@]1(C(=O)O)CO[C@H]2[C@H](C(=O)O)[C@H]21` [LY379268], the basal dopamine levels [1] is given as “reduce”.

In the case of `N[C@H](C(=O)O)[C@H]1C[C@@H]1C(=O)O` [L-CCG1, (2S,1′S,2′S)-2-(2′-carboxycyclopropyl)glycine], the mEPSC amplitude [11] is listed as “without affecting”, the mEPSC frequency [11] is listed as “reduced” and the paired pulse ratios [11] is listed as “increased”.

For `N[C@H](C(=O)O)C1[C@@H](C(=O)O)[C@@H]1C(=O)O` (stereo partly drawn) [DCG-4, (2S,1′R,2′R,3′R)-2-(2,3-dicarboxycyclopropyl)glycine], the basal dopamine levels [1] is listed as “reduce”.

For `N[C@@]1(C(=O)O)CN[C@@H](C(=O)O)C1` [APDC, (2R,4R)-4-aminopyrrolidine-2,4-dycarboxylate], the PFC glutamate levels [2] is given as “without effect” and the “extracellular glutamate in the accumbens” value [3] is given as “reduced extracellular glutamate levels”.

In the case of `O=C(O)CCC(CP(=O)(O)O)C(=O)O` (centres unmarked) [2-PMPA, 2-(phosphonomethyl)-pentanedioic acid], the basal dopamine levels [1] is given as “reduce”.

In the case of `N[C@@H](CSSC[C@H](N)C(=O)O)C(=O)O` [cystine], the solubility [6] is given as “very limited solubility” and the extracellular glutamate levels [12] is given as “increases”.

In the case of `NC(C(=O)O)c1cc(O)ccc1Cl` (centres unmarked) [CHPG], the “relapse induced by agonist alone” value ([13]; CHPG alone, without cue) is reported as “did not induce relapse” and the “cue-induced relapse (active lever presses)” value ([13]; CHPG into nucleus accumbens plus tone and light cue, rats withdrawn 3-5 weeks after cocaine self-administration) is reported as “dose-dependant increase”.

In the case of `CN1CC(=O)N=C1NC(=O)Nc1cccc(Cl)c1` [Fenobam, 1-(3-chlorophenyl)-3-(3-methyl-5-oxo-4H-imidazol-2-yl)urea], the “relapse to cocaine seeking” value [10, 14] is reported as “significantly reduced lever pressing; also recorded: inhibit relapse” and the “relapse to cocaine seeking” value ([10]; vehicle treated rats) is reported as “not”.
